For this assay, the target named is T1, GLP-1R (Homo sapiens, UniProt P43220).
T1 construct: host or cells: CRE-bla CHO-K1
T1 sequence (P43220 24-463): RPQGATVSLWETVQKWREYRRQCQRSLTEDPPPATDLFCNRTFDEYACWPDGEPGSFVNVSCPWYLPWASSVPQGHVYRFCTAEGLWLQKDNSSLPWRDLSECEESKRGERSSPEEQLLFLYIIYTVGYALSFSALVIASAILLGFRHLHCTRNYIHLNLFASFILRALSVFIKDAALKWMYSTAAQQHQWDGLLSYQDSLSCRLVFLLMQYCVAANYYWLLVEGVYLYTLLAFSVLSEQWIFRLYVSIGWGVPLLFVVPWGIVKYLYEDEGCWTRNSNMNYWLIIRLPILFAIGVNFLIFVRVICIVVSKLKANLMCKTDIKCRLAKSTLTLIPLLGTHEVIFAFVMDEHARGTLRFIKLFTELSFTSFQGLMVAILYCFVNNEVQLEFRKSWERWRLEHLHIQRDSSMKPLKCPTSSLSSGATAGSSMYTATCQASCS
T1 sequence (P01275 100-127 partner limits assumed): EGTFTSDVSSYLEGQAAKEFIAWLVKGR
Put plainly: EC20 GLP-1(9-36) PAM cAMP assay: dose response of compound in the presence of fixed concentration of GLP-1(9-36). In kind it is cell-based. The conditions noted are these: GLP-1R CRE-bla CHO-K1 cells, compound dose response in presence of fixed concentration of GLP-1(9-36). The method, then: EC20 GLP-1(9-36) PAM cAMP Assay: Dose Response of Compound in the Presence of Fixed Concentration of GLP-1 (9-36).
GLP-1R CRE-bla CHO-K1 cells cultured in growth medium (DMEM-High glucose, 10% dialyzed FBS, 0.1 mM NEAA, 25 mM Hepes, 100 U/mL penicillin/100 μg/mL streptomycin, 5 μg/mL Blasticidin, 600 μg/mL Hygromycin) were tryspsinized and plated in suspension into 384 well white flat bottom plates at 5000 cells/well in 12 μL assay buffer (Hanks Balanced Salt solution, 10 mM Hepes, 0.1% BSA, pH 7.4). A 5× compound dose response curve (12-point) was generated in assay buffer containing 1.5 mM IBMX, 12.5% DMSO. GLP-1(9-36) was diluted to 4.2 μM in assay buffer containing 1.5 mM IBMX and 12.5% DMSO. The 5× compound dose response was added (3 μL), followed by 0.5 μL of GLP-1(9-36) and cells were incubated for 30 min at 37° C. Direct detection of cAMP was carried out using DiscoveRx HitHunter cAMP kit according to manufacturer's instructions and luminescence was read using a SpectraMax M5 plate reader. Luminescence was converted to total cAMP using a cAMP standard curve and data was analyzed by non-linear regression to determine the EC50 and Emax.
GLP-1(7-36): […]-NH2. GLP-1(9-36): […]-NH2. GLP-1(7-36) was purchased from GenScript. GLP-1(9-36) was purchased from Biopeptide Co., Inc.
For orientation: EC50 means the concentration giving half of the maximal effect. With `CCCCCCCOc1ccc(-c2nc(-c3ccc(C[C@H](NC(=O)c4ccc(C(C)(C)C)cc4)C(=O)O)cc3)no2)cn1` [Compound 51], the EC50 is 2.5 to 5 µM.

`CN1CCCc2c(-c3nc(-c4ccc(C[C@H](NC(=O)c5ccc(C(C)(C)C)cc5)C(=O)O)cc4)no3)cccc21` [Compound 52]: the EC50 lay within 0.8 to 2.5 µM.

On to `CN(C)c1cccc(-c2nc(-c3ccc(C[C@H](NC(=O)c4ccc(C(C)(C)C)cc4)C(=O)O)cc3)no2)c1` [Compound 53], for which the EC50 was in the range of 2.5 to 5 µM.

For the compound `CC(C)(C)c1ccc(C(=O)N[C@@H](Cc2ccc(-c3noc(-c4ccc(S(N)(=O)=O)cc4)n3)cc2)C(=O)O)cc1` [Compound 54], the concentration for a half-maximal effect (EC50) lay within 2.5 to 5 µM.

Regarding `CN(CCO)c1ccc(-c2nc(-c3ccc(C[C@H](NC(=O)c4ccc(C(C)(C)C)cc4)C(=O)O)cc3)no2)cc1` [Compound 55], the 50% effective concentration (EC50) was 2.5 to 5 µM.

For `CC(C)(C)Oc1ccc(-c2nc(-c3ccc(C[C@H](NC(=O)c4ccc(C(C)(C)C)cc4)C(=O)O)cc3)no2)cc1` [Compound 56], the EC50 lay within 2.5 to 5 µM.

`Cc1cc(C)cc(-c2nc(-c3ccc(C[C@H](NC(=O)c4ccc(C(C)(C)C)cc4)C(=O)O)cc3)no2)c1` [Compound 57]: the 50% effective concentration (EC50) was in the range of 2.5 to 5 µM.

In the case of `Cc1ccc(-c2nc(-c3ccc(C[C@H](NC(=O)c4ccc(C(C)(C)C)cc4)C(=O)O)cc3)no2)cc1C` [Compound 58], the EC50 is 2.5 to 5 µM.

Take `CC(C)Sc1ccc(-c2nc(-c3ccc(C[C@H](NC(=O)c4ccc(C(C)(C)C)cc4)C(=O)O)cc3)no2)cc1` [Compound 59]: the concentration for a half-maximal effect (EC50) was 2.5 to 5 µM.

For the compound `CC(C)(C)c1ccc(C(=O)N[C@@H](Cc2ccc(-c3noc(-c4ccc5ccccc5c4)n3)cc2)C(=O)O)cc1` [Compound 60], the concentration giving a half-maximal response (EC50) was in the range of 2.5 to 5 µM.

For `CC(C)(C)c1ccc(C(=O)N[C@@H](Cc2ccc(-c3noc(-c4ccc(C(N)=O)cc4)n3)cc2)C(=O)O)cc1` [Compound 61], the half-maximal effective concentration (EC50) lay in the range of 2.5 to 5 µM.

Take `CC(C)(C)c1ccc(C(=O)N[C@@H](Cc2ccc(-c3noc(-c4ccc(N)cc4)n3)cc2)C(=O)O)cc1` [Compound 62]: the concentration for a half-maximal effect (EC50) was 2.5 to 5 µM.

Turning to `CNc1ccc(-c2nc(-c3ccc(C[C@H](NC(=O)c4ccc(C(C)(C)C)cc4)C(=O)O)cc3)no2)cc1` [Compound 63], the EC50 lay within 0.8 to 2.5 µM.

For `CC(C)(C)c1ccc(C(=O)N[C@@H](Cc2ccc(-c3noc(-c4ccc5[nH]ccc5c4)n3)cc2)C(=O)O)cc1` [Compound 64], the EC50 was in the range of 0.8 to 2.5 µM.

As for `CC(C)Nc1ccc(-c2nc(-c3ccc(C[C@H](NC(=O)c4ccc(C(C)(C)C)cc4)C(=O)O)cc3)no2)cc1` [Compound 65], the EC50 is 2.5 to 5 µM.

For the compound `CC(C)(C)c1ccc(C(=O)N[C@@H](Cc2ccc(-c3noc(-c4cccc5c4CCNC5)n3)cc2)C(=O)O)cc1` [Compound 66], the concentration for a half-maximal effect (EC50) was 2.5 to 5 µM.

In the case of `CCCCCCCOc1ccc(-c2nc(-c3ccc(C[C@H](NC(=O)c4ccc(C(C)(C)C)cc4)C(=O)NCC(=O)O)cc3)no2)cc1` [Compound 67, (S)-2-(2-(4-(tert-butyl)benzamido)-3-(4-(5-(4-(heptyloxy)phenyl)-1,2,4-oxadiazol-3-yl)phenyl)propanamido)acetic acid], the EC50 fell in the range of 0.8 to 2.5 µM.

Regarding `CC(C)(C)c1ccc(C(=O)N[C@@H](Cc2ccc(-c3noc(-c4ccc(N5CCCCC5)cc4)n3)cc2)C(=O)NCC(=O)O)cc1` [Compound 68], the EC50 lay within 2.5 to 5 µM.

As for `CCCCCCCOc1ccc(-c2nc(-c3ccc(C[C@H](NC(=O)c4ccc(C(C)(C)C)cc4)C(=O)NS(C)(=O)=O)cc3)no2)cc1` [Compound 69], the concentration giving a half-maximal response (EC50) is 5 to 10 µM.

On to `CCCCCCCOc1ccc(-c2nc(-c3ccc(C[C@H](NC(=O)c4ccc(C(C)(C)C)cc4)C(=O)NC(C)(C)C(=O)O)cc3)no2)cc1` [Compound 70], for which the EC50 lay in the range of 5 to 10 µM.

Consider `CCCCCCCOc1ccc(-c2nc(-c3ccc(C(NC(=O)c4ccc(C(C)(C)C)cc4)C(=O)O)cc3)no2)cc1` (centres unmarked) [Compound 71], for which the EC50 lay within 2.5 to 5 µM.

For the compound `CC(C)(C)c1ccc(C(=O)NC(C(=O)O)c2ccc(-c3noc(-c4ccc(N5CCCCC5)cc4)n3)cc2)cc1` (centres unmarked) [Compound 72], the concentration for a half-maximal effect (EC50) was in the range of 5 to 10 µM.

As to `CCCCCCCOc1ccc(-c2nc(-c3ccc(CC[C@H](NC(=O)c4ccc(C(C)(C)C)cc4)C(=O)O)cc3)no2)cc1` [Compound 73], the concentration for a half-maximal effect (EC50) fell in the range of 0.8 to 2.5 µM.

With `CC(C)(C)c1ccc(C(=O)N[C@@H](CCc2ccc(-c3noc(-c4ccc(N5CCCCC5)cc4)n3)cc2)C(=O)O)cc1` [Compound 74], the EC50 was in the range of 2.5 to 5 µM.

With `CC(C)(C)c1ccc(C(=O)N[C@H](CC(=O)O)Cc2ccc(-c3noc(-c4ccc(N5CCCCC5)cc4)n3)cc2)cc1` [Compound 75], the EC50 fell in the range of 2.5 to 5 µM.

Take `CCCCCCCOc1ccc(-c2nnc(-c3ccc(C[C@H](NC(=O)c4ccc(C(C)(C)C)cc4)C(=O)O)cc3)o2)cc1` [Compound 76]: the EC50 is 0.8 to 2.5 µM.

Consider `CCCCCCCOc1ccc(-c2coc(-c3ccc(C[C@H](NC(=O)c4ccc(C(C)(C)C)cc4)C(=O)O)cc3)n2)cc1` [Compound 77], for which the EC50 fell in the range of 0.8 to 2.5 µM.

Consider `CCCCCCCOc1ccc(-c2nc(-c3ccc(C[C@H](NC(=O)c4ccc(C(C)(C)C)cc4)C(=O)O)cc3)co2)cc1` [Compound 78], for which the 50% effective concentration (EC50) lay in the range of 0.8 to 2.5 µM.

For the compound `CCCCCCCOc1ccc(-c2csc(-c3ccc(C[C@H](NC(=O)c4ccc(C(C)(C)C)cc4)C(=O)O)cc3)n2)cc1` [Compound 79], the concentration for a half-maximal effect (EC50) is 0.8 to 2.5 µM.

`CCCCCCCOc1ccc(-c2nc(-c3ccc(C[C@H](NC(=O)c4ccc(C(C)(C)C)cc4)C(=O)O)cc3)cs2)cc1` [Compound 80]: the EC50 was 0.8 to 2.5 µM.

As to `CCCCCCCOc1ccc(-c2cnc(-c3ccc(CC(NC(=O)c4ccc(C(C)(C)C)cc4)C(=O)O)cc3)s2)cc1` (centres unmarked) [Compound 81], the EC50 is 5 to 10 µM.

Turning to `CCCCCCCOc1ccc(-c2ncc(-c3ccc(CC(NC(=O)c4ccc(C(C)(C)C)cc4)C(=O)O)cc3)s2)cc1` (centres unmarked) [Compound 82], the EC50 fell in the range of 0.8 to 2.5 µM.

As to `CCCCCCCOc1ccc(-c2nnc(-c3ccc(C[C@H](NC(=O)c4ccc(C(C)(C)C)cc4)C(=O)O)cc3)s2)cc1` [Compound 83], the concentration for a half-maximal effect (EC50) is 0.8 to 2.5 µM.

In the case of `CCCCCCCOc1ccc(-c2nc(-c3ccc(C[C@H](NC(=O)c4ccc(C(C)(C)C)cc4)C(=O)O)cc3)ns2)cc1` [Compound 84], the 50% effective concentration (EC50) is 0.8 to 2.5 µM.

On to `CCCCCCCOc1ccc(-c2cnc(-c3ccc(C[C@H](NC(=O)c4ccc(C(C)(C)C)cc4)C(=O)O)cc3)nc2)cc1` [Compound 85, (S)-2-(4-(tert-butyl)benzamido)-3-(4-(5-(4-(heptyloxy)phenyl)pyrimidin-2-yl)phenyl)propanoic acid], for which the concentration for a half-maximal effect (EC50) lay in the range of 0.8 to 2.5 µM.

As to `CCCCCCCOc1ccc(-c2cnc(-c3ccc(C[C@H](NC(=O)c4ccc(OC)cc4)C(=O)O)cc3)nc2)cc1` [Compound 86], the 50% effective concentration (EC50) was in the range of 0.8 to 2.5 µM.

Consider `CCCCCCCOc1ccc(-c2cnc(-c3ccc(C[C@H](NC(=O)c4ccc(Cl)cc4)C(=O)O)cc3)nc2)cc1` [Compound 87], for which the EC50 fell in the range of 0.8 to 2.5 µM.

As to `CCCCCCCOc1ccc(-c2cnc(-c3ccc(C[C@H](NC(=O)Cc4ccccc4)C(=O)O)cc3)nc2)cc1` [Compound 88], the concentration for a half-maximal effect (EC50) fell in the range of 5 to 10 µM.

On to `CCCCCCCOc1ccc(-c2cnc(-c3ccc(C[C@H](NC(=O)c4ccc(CC)cc4)C(=O)O)cc3)nc2)cc1` [Compound 89], for which the EC50 lay within 0.8 to 2.5 µM.

Turning to `CCCCCCCOc1ccc(-c2cnc(-c3ccc(C[C@H](NC(=O)c4ccc(N5CCCC5)cc4)C(=O)O)cc3)nc2)cc1` [Compound 90], the concentration giving a half-maximal response (EC50) was in the range of 2.5 to 5 µM.

With `CCCCCCCOc1ccc(-c2cnc(-c3ccc(C[C@H](NC(=O)c4ccc(-c5ccccc5)cc4)C(=O)O)cc3)nc2)cc1` [Compound 91], the EC50 lay in the range of 0.8 to 2.5 µM.

Take `CCCCCCCOc1ccc(-c2cnc(-c3ccc(C[C@H](NC(=O)c4cccc(N5CCCC5)c4)C(=O)O)cc3)nc2)cc1` [Compound 92]: the half-maximal effective concentration (EC50) lay in the range of 0.8 to 2.5 µM.

As to `CCCCCCCOc1ccc(-c2cnc(-c3ccc(C[C@H](NC(=O)c4ccc(C(F)(F)F)cc4)C(=O)O)cc3)nc2)cc1` [Compound 93], the concentration for a half-maximal effect (EC50) lay in the range of 5 to 10 µM.

On to `CCCCCCCOc1ccc(-c2cnc(-c3ccc(C[C@H](NC(=O)c4ccc(C(C)C)cc4)C(=O)O)cc3)nc2)cc1` [Compound 94, (S)-3-(4-(5-(4-(heptyloxy)phenyl)pyrimidin-2-yl)phenyl)-2-(4-isopropylbenzamido)propanoic acid], for which the concentration giving a half-maximal response (EC50) was 0.8 to 2.5 µM.

In the case of `CCCCCCCOc1ccc(-c2cnc(-c3ccc(C[C@H](NC(=O)c4cccc(C(C)C)c4)C(=O)O)cc3)nc2)cc1` [Compound 95], the EC50 lay in the range of 0.8 to 2.5 µM.

With `CCCCCCCOc1ccc(-c2cnc(-c3ccc(C[C@H](NC(=O)c4ccc(N(C)C)cc4)C(=O)O)cc3)nc2)cc1` [Compound 96], the EC50 fell in the range of 2.5 to 5 µM.

For the compound `CCCCCCCOc1ccc(-c2cnc(-c3ccc(C[C@H](NC(=O)c4ccc(OC(C)C)cc4)C(=O)O)cc3)nc2)cc1` [Compound 97], the EC50 lay in the range of 0.8 to 2.5 µM.

As for `CCCCCCCOc1ccc(-c2cnc(-c3ccc(C[C@H](NC(=O)c4ccc(C#N)cc4)C(=O)O)cc3)nc2)cc1` [Compound 98], the EC50 was 0.8 to 2.5 µM.

Take `CCCCCCCOc1ccc(-c2cnc(-c3ccc(C[C@H](NC(=O)c4ccc(S(C)(=O)=O)cc4)C(=O)O)cc3)nc2)cc1` [Compound 99]: the EC50 was 0.8 to 2.5 µM.

Take `CCCCCCCOc1ccc(-c2cnc(-c3ccc(C[C@H](NC(=O)c4ccc(CC(C)C)cc4)C(=O)O)cc3)nc2)cc1` [Compound 100]: the concentration for a half-maximal effect (EC50) was in the range of 0.8 to 2.5 µM.

For the origin of these results see US8778923B2, “GLP-1 receptor modulators” (Receptos, Inc., priority 2011, dated 2014).
